In patent US10934263B2, “Charged ion channel blockers and methods for use” (Nocion Therapeutics, Inc., priority 2019, dated 2021):

Biological target: T1, NaV1.7 (Homo sapiens, UniProt Q15858)
T1 construct: expressed in transfected cells; tetracycline-inducible, kept under hygromycin and blasticidin
Assay: Whole cell patch clamp, internal block of NaV1.7 current (compound in internal solution)
Format: cell-based
Settings: % inhibition at 10 μM, compound applied internally, manual patch clamp; read-out: Nav1.7 Intracellular Inhibition
Summary of the method: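 Tetracycline-induced NaV1.7 cells, whole-cell patch clamp at room temperature with compound in CsCl internal solution (pH 7.2), Ringer bath (pH 7.4). Held at −100 mV, steps to −20 mV; after baseline, four 30-s 5 Hz trains. Peak inward current at end of last train divided by baseline gives fraction remaining.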

T1 sequence (Q15858 whole entry): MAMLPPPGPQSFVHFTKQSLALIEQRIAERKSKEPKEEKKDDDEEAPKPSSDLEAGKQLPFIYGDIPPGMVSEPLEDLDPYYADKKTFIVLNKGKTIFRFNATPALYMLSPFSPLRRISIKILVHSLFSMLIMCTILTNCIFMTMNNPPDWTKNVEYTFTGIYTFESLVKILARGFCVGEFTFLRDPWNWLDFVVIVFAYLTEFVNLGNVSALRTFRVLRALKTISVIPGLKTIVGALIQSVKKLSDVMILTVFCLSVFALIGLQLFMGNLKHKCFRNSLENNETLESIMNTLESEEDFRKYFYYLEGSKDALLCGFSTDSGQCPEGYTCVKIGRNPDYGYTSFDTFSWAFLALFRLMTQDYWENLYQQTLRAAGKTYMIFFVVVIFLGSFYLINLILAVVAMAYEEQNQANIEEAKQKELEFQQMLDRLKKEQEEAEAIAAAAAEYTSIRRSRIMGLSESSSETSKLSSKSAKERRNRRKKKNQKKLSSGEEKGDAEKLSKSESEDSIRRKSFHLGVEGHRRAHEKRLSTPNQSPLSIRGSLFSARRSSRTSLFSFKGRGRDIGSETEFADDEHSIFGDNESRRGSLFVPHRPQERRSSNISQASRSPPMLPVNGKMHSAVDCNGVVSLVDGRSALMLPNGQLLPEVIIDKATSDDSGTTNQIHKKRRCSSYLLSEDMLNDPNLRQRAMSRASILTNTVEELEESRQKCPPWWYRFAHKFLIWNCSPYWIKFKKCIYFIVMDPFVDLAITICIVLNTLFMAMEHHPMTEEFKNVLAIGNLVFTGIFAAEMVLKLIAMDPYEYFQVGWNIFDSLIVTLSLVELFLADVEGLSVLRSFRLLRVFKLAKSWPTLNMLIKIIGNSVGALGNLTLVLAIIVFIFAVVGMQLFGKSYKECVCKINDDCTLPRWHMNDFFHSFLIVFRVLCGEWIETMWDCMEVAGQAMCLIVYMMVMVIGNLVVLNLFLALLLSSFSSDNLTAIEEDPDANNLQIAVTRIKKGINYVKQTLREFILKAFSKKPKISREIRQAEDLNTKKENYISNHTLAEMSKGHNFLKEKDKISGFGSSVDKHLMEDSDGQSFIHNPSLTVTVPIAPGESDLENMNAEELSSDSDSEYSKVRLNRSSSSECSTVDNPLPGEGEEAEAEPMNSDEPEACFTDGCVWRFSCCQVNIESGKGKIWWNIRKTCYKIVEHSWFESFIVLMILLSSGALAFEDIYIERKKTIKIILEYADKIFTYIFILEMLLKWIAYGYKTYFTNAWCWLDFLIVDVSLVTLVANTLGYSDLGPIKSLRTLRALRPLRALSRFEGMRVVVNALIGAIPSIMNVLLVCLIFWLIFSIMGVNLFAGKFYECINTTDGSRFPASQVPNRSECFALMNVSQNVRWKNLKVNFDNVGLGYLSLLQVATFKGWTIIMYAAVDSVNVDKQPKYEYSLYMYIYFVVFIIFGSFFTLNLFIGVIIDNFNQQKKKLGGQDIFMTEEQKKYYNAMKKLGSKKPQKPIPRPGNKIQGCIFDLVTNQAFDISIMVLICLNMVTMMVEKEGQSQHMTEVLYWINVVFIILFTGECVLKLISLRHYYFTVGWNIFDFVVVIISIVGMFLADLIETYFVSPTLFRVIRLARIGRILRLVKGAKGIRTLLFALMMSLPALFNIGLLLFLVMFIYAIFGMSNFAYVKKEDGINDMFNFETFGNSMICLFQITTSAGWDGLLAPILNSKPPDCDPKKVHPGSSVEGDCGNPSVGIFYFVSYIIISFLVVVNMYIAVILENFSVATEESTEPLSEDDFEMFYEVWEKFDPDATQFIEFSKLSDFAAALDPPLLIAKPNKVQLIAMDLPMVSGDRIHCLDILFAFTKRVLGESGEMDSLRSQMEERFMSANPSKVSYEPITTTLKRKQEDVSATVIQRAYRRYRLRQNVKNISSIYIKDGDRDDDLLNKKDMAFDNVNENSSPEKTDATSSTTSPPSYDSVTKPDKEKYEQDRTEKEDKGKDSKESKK

SMILES	inhibition at 10 µM [%]
Cc1cccc(C)c1NC(=O)Cn1ccc[n+]1CC(=O)Nc1c(C)cccc1C [Compound 109]	> 95
Cc1cccc(C)c1NC(=O)C[n+]1cccn1C1CCCC1 [Compound 71]	> 95
CCn1ccc(C)[n+]1CC(=O)Nc1c(C)cccc1C [Compound 95]	< 40
CCOC(=O)CCCn1ccc[n+]1CC(=O)Nc1c(C)cccc1C [Compound 75]	> 95
Cc1cccc(C)c1NC(=O)C[n+]1cc(OCc2ccccc2)ccc1Cl [Compound 103]	> 95
CCOC(=O)Cn1cc(C)c[n+]1CC(=O)Nc1c(C)cccc1C [Compound 76]	70 to 95
COc1cc(OC)c[n+](CC(=O)Nc2c(C)cccc2C)c1 [Compound 98]	70 to 95
CCCn1ccc(C)[n+]1CC(=O)Nc1c(C)cccc1C [Compound 101]	70 to 95
Cc1cccc(C)c1NC(=O)C[n+]1cc(F)cc(-c2ccccc2)c1 [Compound 77]	> 95
COC(=O)c1c(F)c[n+](CC(=O)Nc2c(C)cccc2C)cc1F [Compound 89]	40 to 70
Cc1cccc(C)c1NC(=O)C[n+]1c(C)cc(C)n1C [Compound 94]	70 to 95
CNC(=O)Cc1ccc[n+](CC(=O)Nc2c(C)cccc2C)c1 [Compound 33]	70 to 95
Cc1cccc(C)c1NC(=O)C[n+]1cccn1CC1CC1 [Compound 73]	> 95
CCOC(=O)c1cc(C)[n+](CC(=O)Nc2c(C)cccc2C)n1C [Compound 84]	70 to 95

The next lines start with the values.

inhibition at 10 µM [%]	SMILES
70 to 95	Cc1cccc(C)c1NC(=O)C(CC(C)C)[n+]1ccccc1 (stereo not drawn) [Compound 108]
70 to 95	CCn1c(C)cc[n+]1CC(=O)Nc1c(C)cccc1C [Compound 104]
70 to 95	Cc1cccc(C)c1NC(=O)C[n+]1cccc(S(C)(=O)=O)c1 [Compound 46]
70 to 95	CCCn1c(C)cc[n+]1CC(=O)Nc1c(C)cccc1C [Compound 81]
> 95	Cc1cccc(C)c1NC(=O)C(Cc1ccccc1)[n+]1ccccc1 (stereo not drawn) [Compound 106]
70 to 95	Cc1cccc(C)c1NC(=O)C[n+]1cc2ccccc2n1C [Compound 54]
> 95	Cc1cccc(C)c1NC(=O)C[n+]1cccc(N2CCCC2)c1 [Compound 51]
70 to 95	Cc1cccc(C)c1NC(=O)C[n+]1cccc(Cc2ccccc2)c1 [Compound 34]
40 to 70	Cc1cccc(C)c1NC(=O)C[n+]1cccn1CC#N [Compound 69]
70 to 95	Cc1cccc(C)c1NC(=O)C[n+]1cccc(S(=O)(=O)N(C)C)c1 [Compound 47]
> 95	CCNc1ccc[n+](CC(=O)Nc2c(C)cccc2C)c1 [Compound 50]
70 to 95	Cc1cccc(C)c1NC(=O)C[n+]1cccc(C(F)(F)F)c1 [Compound 66]
70 to 95	CCCCn1ccc[n+]1CC(=O)Nc1c(C)cccc1C [Compound 83]
